Target: human APJ receptor (Homo sapiens (Human), UniProt P35414)
Assay: biochemical
Type: biochemical
Settings: [35S]GTPγS binding, CHO membranes expressing human APJ receptor; read-out: Activity hAPJ SPA EC50 IP
Outline: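 Membranes of a stable CHO line carrying human APJ (pFLAG-CMV-3) were used in a GTPγS binding format; buffer GDP, MgCl2 and NaCl were optimized, and plates were read after 90 min at RT.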

human APJ receptor, sequence (P35414 whole entry): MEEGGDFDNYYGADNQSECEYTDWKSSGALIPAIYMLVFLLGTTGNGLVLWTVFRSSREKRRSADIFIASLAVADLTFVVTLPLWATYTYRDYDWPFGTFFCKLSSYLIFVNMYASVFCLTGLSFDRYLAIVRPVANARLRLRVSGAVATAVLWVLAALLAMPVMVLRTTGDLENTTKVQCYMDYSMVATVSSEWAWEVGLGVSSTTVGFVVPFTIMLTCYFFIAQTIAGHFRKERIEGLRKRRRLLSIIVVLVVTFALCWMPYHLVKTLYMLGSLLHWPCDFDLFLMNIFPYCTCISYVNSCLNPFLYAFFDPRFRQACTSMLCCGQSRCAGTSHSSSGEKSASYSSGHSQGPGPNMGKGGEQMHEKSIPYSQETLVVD

Row | Compound | EC50
1 | COc1cccc(OC)c1-n1c(NS(=O)(=O)C[C@H](O)c2ccc(F)cc2S(C)(=O)=O)nnc1-c1ccn(C)n1 (single isomer, unassigned) [Example 370.0, (R)-N-(4-(2,6-Dimethoxyphenyl)-5-(1-methyl-1H-pyrazol-3-yl)-4H-1,2,4-triazol-3-yl)-2-(4-fluoro-2-(methylsulfonyl)phenyl)-2-hydroxyethanesulfonamide or (S)-N-(4-(2,6-dimethoxyphenyl)-5-(1-methyl-1H-pyrazol-3-yl)-4H-1,2,4-triazol-3-yl)-2-(4-fluoro-2-(methylsulfonyl)phenyl)-2-hydroxyethanesulfonamide] | 3.1 nM
2 | COc1cccc(OC)c1-n1c(NS(=O)(=O)[C@@H](C)[C@H](OC)c2cnc(C)cn2)nnc1-c1cc2n(n1)CCC2 [Example 216.0, (1R,2S)-N-(5-(5,6-dihydro-4H-pyrrolo[1,2-b]pyrazol-2-yl)-4-(2,6-dimethoxyphenyl)-4H-1,2,4-triazol-3-yl)-1-methoxy-1-(5-methyl-2-pyrazinyl)-2-propanesulfonamide] | 3.7 nM
3 | COc1cccc(OC)c1-n1c(NS(=O)(=O)[C@@H](C)[C@H](OC)c2ncc(C)cn2)nnc1-c1noc2ccccc12 [Example 87.0, (1R,2S)-N-(5-(benzo[d]isoxazol-3-yl)-4-(2,6-dimethoxyphenyl)-4H-1,2,4-triazol-3-yl)-1-methoxy-1-(5-methylpyrimidin-2-yl)propane-2-sulfonamide] | 82 nM
4 | Cc1cnc([C@@H](C)[C@H](C)S(=O)(=O)Nc2nnc(-c3cnn4c3CCC4)n2-c2c(F)cccc2F)nc1 [Example 483.0, (2S,3R)-N-(4-(2,6-difluorophenyl)-5-(5,6-dihydro-4H-pyrrolo[1,2-b]pyrazol-3-yl)-4H-1,2,4-triazol-3-yl)-3-(5-methylpyrimidin-2-yl)butane-2-sulfonamide] | 5.4 nM
5 | COc1cccc(OC)c1-n1c(NS(=O)(=O)CCc2ccc(Cl)cc2)nnc1-c1cncs1 [Example 137.0, 2-(4-chlorophenyl)-N-(4-(2,6-dimethoxyphenyl)-5-(thiazol-5-yl)-4H-1,2,4-triazol-3-yl)ethanesulfonamide] | 30 nM
6 | COc1cccc(OC)c1-n1c(NS(=O)(=O)[C@H](C)Cc2ncc(F)cn2)nnc1-c1ccn(C)c1 (single isomer, unassigned) [Example 35.0, (R)-N-(4-(2,6-dimethoxyphenyl)-5-(1-methyl-1H-pyrrol-3-yl)-4H-1,2,4-triazol-3-yl)-1-(5-fluoropyrimidin-2-yl)propane-2-sulfonamide or (S)-N-(4-(2,6-dimethoxyphenyl)-5-(1-methyl-1H-pyrrol-3-yl)-4H-1,2,4-triazol-3-yl)-1-(5-fluoropyrimidin-2-yl)propane-2-sulfonamide] | 27 nM
7 | COc1ncnc(OC)c1-n1c(NS(=O)(=O)[C@@H](C)[C@H](C)c2ccc(Cl)cn2)nnc1-c1ccn(C)n1 [Example 534.0, (2S,3R)-3-(5-chloro-2-pyridinyl)-N-(4-(4,6-dimethoxy-5-pyrimidinyl)-5-(1-methyl-1H-pyrazol-3-yl)-4H-1,2,4-triazol-3-yl)-2-butanesulfonamide] | 0.93 nM
8 | COc1cccc(OC)c1-n1c(NS(=O)(=O)[C@@H](C)[C@H](C)c2ncc(Cl)cn2)nnc1-c1n[nH]c2ccccc12 [Example 429.0] | 7.6 nM
9 | COc1cccc(OC)c1-n1c(NS(=O)(=O)CCc2ccc(Cl)cc2)nnc1-c1cscn1 [Example 91.0, 2-(4-chlorophenyl)-N-(4-(2,6-dimethoxyphenyl)-5-(thiazol-4-yl)-4H-1,2,4-triazol-3-yl)ethanesulfonamide] | 26 nM
10 | Cc1cnc([C@@H](C)[C@H](C)S(=O)(=O)Nc2nnc(-c3ccn(C)n3)n2-c2c(F)cccc2F)cn1 [Example 231.0, (2S,3R)-N-(4-(2,6-difluorophenyl)-5-(1-methyl-1H-pyrazol-3-yl)-4H-1,2,4-triazol-3-yl)-3-(5-methyl-2-pyrazinyl)-2-butanesulfonamide] | 46 nM
11 | COc1cccc(OC)c1-n1c(NS(=O)(=O)CCc2ccc(Cl)cc2)nnc1-c1csc(C)n1 [Example 149.0, 2-(4-chlorophenyl)-N-(4-(2,6-dimethoxyphenyl)-5-(2-methylthiazol-4-yl)-4H-1,2,4-triazol-3-yl)ethanesulfonamide] | 27 nM
12 | COc1cccc(OC)c1-n1c(NS(=O)(=O)[C@@H](C)[C@H](OC)c2ncc(Cl)cn2)nnc1-c1cnn2ccccc12 [Example 423.0, (1R,2S)-1-(5-chloropyrimidin-2-yl)-N-(4-(2,6-dimethoxyphenyl)-5-(pyrazolo [1,5-a]pyridin-3-yl)-4H-1,2,4-triazol-3-yl)-1-methoxypropane-2-sulfonamide] | 0.68 nM
13 | COc1cccc(OC)c1-n1c(NS(=O)(=O)[C@@H](C)[C@H](C)c2ncc(C)cn2)nnc1-c1ccn(C(F)F)n1 [Example 198.0, (2S,3R)-N-(5-(1-(difluoromethyl)-1H-pyrazol-3-yl)-4-(2,6-dimethoxyphenyl)-4H-1,2,4-triazol-3-yl)-3-(5-methyl-2-pyrimidinyl)-2-butanesulfonamide] | 0.2 nM
14 | COc1cccc(OC)c1-n1c(NS(=O)(=O)[C@H](C)Cc2ncc(F)cn2)nnc1-c1nc(C(C)C)cs1 (single isomer, unassigned) [Example 157.0, (R)-N-(4-(2,6-dimethoxyphenyl)-5-(4-isopropylthiazol-2-yl)-4H-1,2,4-triazol-3-yl)-1-(5-fluoropyrimidin-2-yl)propane-2-sulfonamide or (S)-N-(4-(2,6-dimethoxyphenyl)-5-(4-isopropylthiazol-2-yl)-4H-1,2,4-triazol-3-yl)-1-(5-fluoropyrimidin-2-yl)propane-2-sulfonamide] | 58 nM
15 | COc1cccc(OC)c1-n1c(NS(=O)(=O)[C@@H](C)[C@H](OC)c2ncc(Cl)cn2)nnc1-c1cncc(C)n1 [Example 214.0, (1R,2S)-1-(5-chloro-2-pyrimidinyl)-N-(4-(2,6-dimethoxyphenyl)-5-(6-methyl-2-pyrazinyl)-4H-1,2,4-triazol-3-yl)-1-methoxy-2-propanesulfonamide] | 0.4 nM
16 | COc1cnc([C@@H](C)[C@H](C)S(=O)(=O)Nc2nnc(-c3ccn(C)n3)n2-c2c(F)cccc2F)cn1 [Example 230.0, (2S,3R)-N-(4-(2,6-difluorophenyl)-5-(1-methyl-1H-pyrazol-3-yl)-4H-1,2,4-triazol-3-yl)-3-(5-methoxy-2-pyrazinyl)-2-butanesulfonamide] | 25 nM
17 | COc1cccc(OC)c1-n1c(NS(=O)(=O)[C@@H](C)[C@H](OC)c2ncc(Cl)cn2)nnc1-c1cnn(C)c1C(C)C [Example 501.0, (1R,2S)-1-(5-chloropyrimidin-2-yl)-N-(4-(2,6-dimethoxyphenyl)-5-(5-isopropyl-1-methyl-1H-pyrazol-4-yl)-4H-1,2,4-triazol-3-yl)-1-methoxypropane-2-sulfonamide] | 9.3 nM
18 | COc1ncnc(OC)c1-n1c(NS(=O)(=O)[C@@H](C)[C@@H](OC(C)C)c2cnc(C)cn2)nnc1-c1ccn(C)n1 [Example 461.0, (1S,2S)-N-(4-(4,6-dimethoxy-5-pyrimidinyl)-5-(1-methyl-1H-pyrazol-3-yl)-4H-1,2,4-triazol-3-yl)-1-(5-methyl-2-pyrazinyl)-1-(2-propanyloxy)-2-propanesulfonamide] | 9 nM
19 | (R)-N-(4-(2,6-dimethoxyphenyl)-5-(1-methyl-1H-pyrazol-4-yl)-4H-1,2,4-triazol-3-yl)-1-(5-fluoropyrimidin-2-yl)propane-2-sulfonamide and (R)-N-(4-(2,6-dimethoxyphenyl)-5-(1-methyl-1H-pyrazol-4-yl)-4H-1,2,4-triazol-3-yl)-1-(5-fluoropyrimidin-2-yl)propane-2-sulfonamide [Example 40.0] | 5.2 nM
20 | COc1cccc(OC)c1-n1c(NS(=O)(=O)[C@@H](C)[C@H](OC)c2ncc(C)cn2)nnc1-c1ccc(C)s1 [Example 332.0, (1R,2S)-N-(4-(2,6-dimethoxyphenyl)-5-(5-methyl-2-thiophenyl)-4H-1,2,4-triazol-3-yl)-1-methoxy-1-(5-methyl-2-pyrimidinyl)-2-propanesulfonamide] | 0.37 nM
21 | COc1ccccc1-n1c(NS(=O)(=O)CCc2ccccc2)nnc1-c1cccs1 [Example 238.0, N-(4-(2-methoxyphenyl)-5-(2-thiophenyl)-4H-1,2,4-triazol-3-yl)-2-phenylethanesulfonamide] | 226 nM
22 | COc1cccc(OC)c1-n1c(NS(=O)(=O)[C@@H](C)[C@H](OC)c2ncc(Cl)cn2)nnc1-c1ccn(C(F)F)n1 [Example 207.0, (1R,2S)-1-(5-chloro-2-pyrimidinyl)-N-(5-(1-(difluoromethyl)-1H-pyrazol-3-yl)-4-(2,6-dimethoxyphenyl)-4H-1,2,4-triazol-3-yl)-1-methoxy-2-propanesulfonamide] | 0.13 nM
23 | COc1ccc([C@@H](C)[C@H](C)S(=O)(=O)Nc2nnc(-c3ccn(C)n3)n2-c2c(OC)cccc2OC)nc1 [Example 459.0, (2S,3R)-N-(4-(2,6-dimethoxyphenyl)-5-(1-methyl-1H-pyrazol-3-yl)-4H-1,2,4-triazol-3-yl)-3-(5-methoxy-2-pyridinyl)-2-butanesulfonamide] | 0.33 nM
24 | COc1cccc(OC)c1-n1c(NS(=O)(=O)[C@@H](C)[C@H](OC)c2ncc(C)cn2)nnc1-c1cnn2ccc(C)cc12 [Example 416.0, (1R,2S)-N-(4-(2,6-dimethoxyphenyl)-5-(5-methylpyrazolo[1,5-a]pyridin-3-yl)-4H-1,2,4-triazol-3-yl)-1-methoxy-1-(5-methylpyrimidin-2-yl)propane-2-sulfonamide] | 8.4 nM
25 | CCn1ccc(-c2nnc(NS(=O)(=O)[C@@H](C)[C@H](O)c3ncc(C)cn3)n2-c2c(OC)cccc2OC)n1 [Example 388.0, (1R,2S)-N-(4-(2,6-Dimethoxyphenyl)-5-(1-ethyl-1H-pyrazol-3-yl)-4H-1,2,4-triazol-3-yl)-1-hydroxy-1-(5-methylpyrimidin-2-yl)propane-2-sulfonamide] | 0.37 nM
26 | COc1cccc(OC)c1-n1c(NS(=O)(=O)[C@@H](C)[C@H](OC)c2ncc(C)cn2)nnc1-c1coc(C)n1 [Example 339.0, (1R,2S)-N-(4-(2,6-dimethoxyphenyl)-5-(2-methyl-1,3-oxazol-4-yl)-4H-1,2,4-triazol-3-yl)-1-methoxy-1-(5-methyl-2-pyrimidinyl)-2-propanesulfonamide] | 2.1 nM

Source: patent US11046680B1, “Heteroaryl-substituted triazoles as APJ receptor agonists” (priority 2016, dated 2021)
